# Measured values from BindingDB's records for doi:10.1007/s10822-022-00478-x (Roche Innovation Center Basel, F. Hoffmann-La Roche Ltd., 2022).
# Biological target: cAMP and cAMP-inhibited cGMP 3',5'-cyclic phosphodiesterase 10A (Homo sapiens, UniProt Q9Y233)
# Assay: PDE10A assay
# Summary of the method: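 Scintillation proximity readout of [3H]cGMP hydrolysis (50 nM final substrate, 15 min) by 2 ng/well human PDE10A after 15 min compound preincubation at RT, pH 7.5 with MgCl2. Four-parameter logistic fit gave IC50, reported as pIC50.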
# cAMP and cAMP-inhibited cGMP 3',5'-cyclic phosphodiesterase 10A, sequence (Q9Y233 as listed by the source): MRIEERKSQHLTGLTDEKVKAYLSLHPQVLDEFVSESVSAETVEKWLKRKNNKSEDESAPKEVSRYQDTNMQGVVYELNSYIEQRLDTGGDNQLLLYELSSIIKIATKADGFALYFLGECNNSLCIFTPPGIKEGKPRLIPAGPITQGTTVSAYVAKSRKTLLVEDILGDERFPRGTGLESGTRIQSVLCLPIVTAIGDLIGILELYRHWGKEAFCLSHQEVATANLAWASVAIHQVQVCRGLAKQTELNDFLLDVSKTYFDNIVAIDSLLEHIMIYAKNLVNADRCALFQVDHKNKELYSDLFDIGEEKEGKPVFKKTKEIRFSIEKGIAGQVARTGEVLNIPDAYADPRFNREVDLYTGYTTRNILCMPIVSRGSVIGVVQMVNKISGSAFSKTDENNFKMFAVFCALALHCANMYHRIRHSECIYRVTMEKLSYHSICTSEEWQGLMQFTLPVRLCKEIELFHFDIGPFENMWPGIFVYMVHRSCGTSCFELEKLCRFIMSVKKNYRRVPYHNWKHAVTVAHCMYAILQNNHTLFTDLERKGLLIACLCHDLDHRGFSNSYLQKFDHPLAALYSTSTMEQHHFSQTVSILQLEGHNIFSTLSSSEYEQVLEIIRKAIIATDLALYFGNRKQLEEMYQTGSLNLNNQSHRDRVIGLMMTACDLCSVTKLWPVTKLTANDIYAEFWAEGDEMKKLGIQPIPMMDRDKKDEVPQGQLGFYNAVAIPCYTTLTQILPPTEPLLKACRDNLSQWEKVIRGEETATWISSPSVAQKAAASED
row,Structure (SMILES),IC50 [nM]
1,"O=C(Nc1sccc1C(=O)N1CCOCC1)c1nc(C2CC2)ccc1Nc1cncnc1 [US8703768, 90]",0.44
2,"CNC(=O)c1c(NC(=O)c2nc(C3CC3)cnc2Nc2cncnc2)cnn1CCC(F)(F)F [US8703768, 173]",19
3,"CCc1ccc(NC(=O)c2nc(C3CC3)cnc2Nc2cncnc2)c(C(=O)NCC(C)(C)O)n1 [US8703768, 181]",0.41
4,"CCN(C)C(=O)c1ncccc1NC(=O)c1nc(C2CC2)cnc1Nc1cncnc1 [US8703768, 199]",5.93
5,"CCN(C)C(=O)c1c(NC(=O)c2nc(C3CC3)cnc2Nc2cncnc2)cnn1C [US8703768, 203]",25
6,"CNC(=O)c1cc(C(C)C)ccc1NC(=O)c1nc(C2CC2)cnc1Nc1cncnc1 [US8703768, 208]",1.15
7,"COCc1ccc(NC(=O)c2nc(C3CC3)cnc2Nc2cncnc2)c(C(=O)NCC(C)(C)O)n1 [US8703768, 210]",0.48
8,"COCCOc1ccc(NC(=O)c2nc(C3CC3)cnc2Nc2cncnc2)c(C(=O)NCC(C)(C)O)c1 [US8703768, 213]",0.74
9,"CC(C)(O)CNC(=O)c1cc(OCCO)ccc1NC(=O)c1nc(C2CC2)cnc1Nc1cncnc1 [US8703768, 215]",0.49
10,"CNC(=O)c1cc(OCCO)ccc1NC(=O)c1nc(C2CC2)cnc1Nc1cncnc1 [US8703768, 216]",0.77
11,"CNC(=O)c1cc(OC)ccc1NC(=O)c1nc(C2CC2)cnc1Nc1cncnc1 [US8703768, 225]",0.48
12,"CNC(=O)c1c(NC(=O)c2nc(OC)cnc2Nc2cncnc2)cnn1C [US8703768, 258]",141
13,"CC(C)(O)CNC(=O)c1cc(C#N)ccc1NC(=O)c1nc(C2CC2)cnc1Nc1cncnc1 [US8703768, 262]",0.71
14,"O=C(NCCO)c1ncccc1NC(=O)c1nc(C2CC2)cnc1Nc1cncnc1 [US8703768, 271]",0.36
15,"CC(C)(CO)NC(=O)c1ncccc1NC(=O)c1nc(C2CC2)cnc1Nc1cncnc1 [US8703768, 273]",0.31
16,"CNC(=O)c1cc(NC(C)=O)ccc1NC(=O)c1nc(C2CC2)cnc1Nc1cncnc1 [US8703768, 274]",0.38
17,"CC1(NC(=O)c2ncccc2NC(=O)c2nc(C3CC3)cnc2Nc2cncnc2)COC1 [US8703768, 275]",0.38
18,"Cc1ccc(NC(=O)c2nc(C3CC3)cnc2Nc2cncnc2)c(C(=O)N(C)C)n1 [US8703768, 276]",13

# More lines, now with the values ahead:
row,IC50 [nM],Structure (SMILES)
1,0.64,"Cc1ncc(NC(=O)c2nc(C3CC3)cnc2Nc2cncnc2)c(C(=O)NCC(C)(C)O)n1 [US8703768, 281]"
2,0.74,"CNC(=O)c1cc(F)c(F)cc1NC(=O)c1nc(C2CC2)cnc1Nc1cncnc1 [US8703768, 288]"
3,28,"O=C(Nc1cc(F)c(F)cc1C(=O)N1CCC1)c1nc(C2CC2)cnc1Nc1cncnc1 [US8703768, 291]"
4,0.68,"CNC(=O)c1ccc(F)cc1NC(=O)c1nc(C2CC2)cnc1Nc1cncnc1 [US8703768, 292]"
5,0.32,"CNC(=O)c1c(F)cc(F)cc1NC(=O)c1nc(C2CC2)cnc1Nc1cncnc1 [US8703768, 299]"
6,0.92,"CN(C)C(=O)c1c(F)cccc1NC(=O)c1nc(C2CC2)cnc1Nc1cncnc1 [US8703768, 308]"
7,1.67,"O=C(Nc1cccc(F)c1C(=O)N1CCC1)c1nc(C2CC2)cnc1Nc1cncnc1 [US8703768, 309]"
8,19,"CCN(C)c1cnc(Nc2cncnc2)c(C(=O)Nc2cnn(C)c2C(=O)NC)n1 [US8703768, 311]"
9,0.95,"CNC(=O)c1cc(F)ccc1NC(=O)c1nc(C2CC2)cnc1Nc1cncnc1 [US8703768, 312]"
10,51,"CN(C)CCNC(=O)c1c(NC(=O)c2nc(C3CC3)cnc2Nc2cncnc2)cnn1C [US8703768, 313]"
11,0.59,"CCOC(=O)CCc1ccc(NC(=O)c2nc(C3CC3)cnc2Nc2cncnc2)c(C(=O)NC)c1 [US8703768, 321]"
12,0.39,"CNC(=O)c1cc(CCC(=O)O)ccc1NC(=O)c1nc(C2CC2)cnc1Nc1cncnc1 [US8703768, 328]"
13,0.75,"Cn1ncc(NC(=O)c2nc(C3CC3)cnc2Nc2cncnc2)c1C(=O)N1CCCO1 [US8703768, 335]"
14,17,"Cc1nn2ccc(CCc3nc(N4CCCC4)nn3C)nc2c1C [US9617271, 53]"
15,0.64,"Cc1cc(C#Cc2nc(N3CCCC3)nn2C)nn2c(C)c(C(F)(F)F)nc12 [US9617271, 54]"
16,9.21,"Cc1cn2nc(C#Cc3nc(N4CCCC4)nn3C)ccc2n1 [US9617271, 67]"
17,21,"Cn1cc(-c2ccccc2)nc1CCc1cnc2ccccc2n1 [US9834564, Compound 20]"
18,12,"Cn1cc(-c2ccccc2)nc1C#Cc1ccc2nc(C(F)(F)F)cn2n1 [US10399985, Example 8]"
19,2.4,"Cc1nc2c(C)c(C)c(CCc3nc(-c4ccccc4)cn3C)nn2c1C [US10399985, Example 14]"
20,21,"Cc1nc2ccc(CCc3nc(-c4ccccc4)cn3C)nn2c1CO [US10399985, Example 15]"
21,4.89,"Cc1nn2ccc(CCc3nc(-c4ccccc4)cn3C)nc2c1C [US10399985, Example 16]"
22,5.6,"Cc1c(C(F)F)nc2ccc(CCc3nc(-c4ccccc4)cn3C)nn12 [US10399985, Example 19]"
23,34,"Cc1c(C(F)(F)F)nc2ccc(OCc3nc(-c4ccccc4)cn3C)nn12 [US10399985, Example 36]"
